The results in this text go back to patent US20240277705A1, “DOSAGE REGIMENS FOR ECUBECTEDIN” (PHARMA MAR S.A., priority 2021, published 2024).

In one data set the test system is MEXF 276L (melanoma). In words: Propidium iodide monolayer cell proliferation assay, MEXF 276L. The data set is classed as cell-based, human. The procedure:
Cell proliferation assay: A modified propidium iodide (PI) based monolayer assay was used to assess the anti-cancer activity of the compounds (Dengler WA, Schulte J, Berger DP, Mertelsmann R, Fiebig HH, Anti-Cancer Drugs 1995, 6: 522-532). Briefly, cells were harvested from exponential phase cultures, counted and plated in 96 well flat-bottom microtiter plates at a cell density of 4,000 to 30,000 cells/well dependent on the cell line's growth rate. After a 24 h recovery period, to allow the cells to resume exponential growth, 10 μl of culture medium (4 control wells/cell line/plate) or of culture medium with test compounds were added. PM14 was applied at ten concentrations in half-log increments in duplicates up to 3.16 pM and treatment continued for four days. […] After an incubation period of 1-2 hours at room temperature, fluorescence (FU) was measured using the Enspire Multimode Plate Reader (excitation A=530 nm, emission A=620 nm) to quantify the amount of attached viable cells.
IC50 and IC70 values were calculated by 4 parameter non-linear curve fit using Oncotest Warehouse Software. […]
IC50 values were determined as described in Example 2, but using the following human cancer cell lines: • MEXF 276L (melanoma) • MEXF 462NL (melanoma) • MEXF 1341L (melanoma)

Data set [1] in a line: Phase I dose-escalating study, pharmacokinetics. In kind it is in vivo. The text has this:
Open-label, dose-escalating, phase I trial of PM14 administered as a 3-hour infusion i.v. every 3 weeks (q3wk) in human patients (pts) with advanced solid tumors, adequate organ function and ECOG PS score of 0-1. Two schedules were explored: Schedule A (Day 1 [D1], Day 8 [D8]) and Schedule B (D1).
Secondary Endpoints • Safety: patients will be evaluable for safety if they have received at least one partial infusion of PM14. AEs will be graded according to the NCI-CTCAE v.4. Additionally, treatment-related discontinuations and treatment compliance (dose reduction, skipped doses and/or treatment delays due to AEs), will be described. • Pharmacokinetics: PK analyses will be evaluated in plasma and urine by standard non-compartmental analysis (compartmental modeling may be performed if appropriate). Plasma samples for PM14 PK analysis will be obtained in Cycle 1 from all patients, and also in Cycle 2 from patients treated during Step D of the CRM. In addition, the urine produced during Day 1 of Cycle 1 and Cycle 2 will be collected from patients treated during Step D of the CRM. • Pharmacogenetics: the presence or absence of PGt polymorphisms in genes relevant for PM14 disposition (distribution, metabolism and excretion) from a single blood sample collected at any time during the trial (but preferably at the same time as the pre-treatment PK sample on Day 1 of Cycle 1) will be assessed to explain individual variability in main PK parameters. • Pharmacogenomics: this exploratory analysis will be performed in those patients who sign the Informed Consent Form (ICF) for the PGx study. mRNA or protein expression levels of factors involved in DNA repair mechanisms, or related to the mechanism of action of PM14, will be evaluated from available tumor tissue samples obtained at diagnosis or relapse and in cell-free ctDNA. Their mutational status might also be analyzed, if relevant. Their correlation with the clinical response and outcome after treatment will be assessed. • Efficacy: patients will be evaluable for efficacy if they receive at least one complete infusion of PM14 and have at least one clinical or radiological tumor assessment as per RECIST v.1.1 or serum markers, or if they are considered to have failed treatment. Treatment failure will be defined as clinical deterioration, death due to PD or treatment discontinuation due to any treatment-related toxicity before any appropriate tumor assessments have been performed.

By IC50 is commonly meant the concentration needed to halve the response being measured. As a reminder, the Vd is the apparent volume that relates the amount in the body to the concentration in plasma or blood. For orientation: clearance means a measure of how efficiently the substance is removed, as volume per time. A high value points to efficient removal. Usually half-life stands for how long it takes for the measured level to halve. Read a low half-life as rapid decline.

Take `COc1c(C)cc2c(c1O)[C@@H]1[C@@H]3[C@@H]4SC[C@]5(N[C@H](CO)Cc6c5[nH]c5ccccc65)C(=O)OC[C@@H](c5c6c(c(C)c(OC(C)=O)c54)OCO6)N3[C@@H](O)[C@H](C2)N1C` [PM14, ECUBECTEDIN]: in the data set with MEXF 276L (melanoma), the “IC70, μM (geometric mean)” value is 0.0003 µM. In addition, the IC50 in the data set on MEXF 276L (melanoma) (Homo sapiens, MEXF276L, read-out: IC50, μM (geometric mean)) was found to be 0.0002 µM. For the same compound, in data set [1] (human, in vivo), the Vd is 128 L and the clearance is 98.3 mL/min. The half-life in data set [1] (human, in vivo, half-life) was 16 h. The half-life in data set [1] (human, in vivo, terminal half-life, median (range)) was 15.9 h. Besides, in data set [1] (patients), the “administered dose recovered in urine” value was “Less than 1.6%”, the “distribution into peripheral tissues” value was “moderate” and the hepatic extraction ratio result was “low”. For the same compound, the “pharmacokinetics, dose linearity” value in data set [1] (tested doses 0.25-5.6 mg/rn^2) is “Linear pharmacokinetics”.
